Reference: patent US10723730B2, “Solid forms of a selective CDK4/6 inhibitor” (PFIZER INC., priority 2013, dated 2020)

Experiments:
[1] = small-scale crystallization studies; type: physicochemical; conditions: 50 mg/mL, 10 mg scale, warmed to reflux
Description: A series of small-scale crystallization experiments was run to identify a potential recrystallization solvent system as well as to assess the impact of solvent on the shape of the free base primary particles isolated. An initial set of 14 screening studies were run on a 10 mg scale using sealed vials and an external heat source to warm the 50 mg/mL samples up to reflux temperature. Visual observation identified the samples that went into solution, and photomicroscopy was used to characterize the particles produced.

[2] = kinetic solubility measurements (dissolution temperature); type: physicochemical; conditions: 25 mg/mL, max 110° C.
Description: In an initial room temperature solubility screening study, a total of 23 solvents were screened. […] Subsequent targeted higher temperature solubility studies were conducted.

[3] = UPLC/MS testing of the saturated solution; type: physicochemical; conditions: saturated solution from experiments #3 (NMP) and #11 (10% n-BuOH/NMP) of Table 6
[4] = particle size analysis by laser diffraction; type: physicochemical
Description: Particle sizes for the recrystallized materials were assessed using laser diffraction methods. Laser diffraction is recognized by standards and guidance agencies including ISO and ASTM and is widely used to determine particle size distributions. In conducting the assessment, the sample is passed through a laser beam which results in laser light scattered at a range of angles. Detectors placed at fixed angles measure the intensity of light scattered at that position. A mathematical model (Mie or Fraunhoffer Theory) is then applied to generate a particle size distribution.
The particle size was analyzed using the laser diffraction (or small angle light scattering) technique by dispersing the dry sample powder with compressed air. Specifically, the particle size distribution was analyzed using the Sympatec HELOS RODOS system equipped with a Vibri dry powder feeder. The powder sample was dispersed with a dispersion pressure of 0.5 bar. In some instances, an Aspiros micro-dosing device was used, and the powder sample was dispersed with a dispersion pressure of 0.2 bar. A suitable lens was selected to cover the particle size range of each sample.

[5] = MASS (Material Adhesion Screen for Sticking) Punch; type: physicochemical; conditions: 10% API in standard blend (89.75% Avicel PH102, 0.25% magnesium stearate); up to 100 compressions
From the text: The MASS (Material Adhesion Screen for Sticking) Punch was developed in-house to quantitatively assess the sticking propensity of tablet formulations by weighing the amount of adhered powder on removable punch tip after a series of compressions. This test enables formulators to objectively and quickly evaluate the risk of punch sticking during drug product development and troubleshoot sticking observed during clinical tablet manufacturing. To prepare the sample for MASS Punch testing, 10 g of API was diluted in a lightly lubricated standard blend (10% API, 89.75% Avicel PH102 and 0.25% magnesium stearate) and bottle blended (500 mL amber glass bottle) for 500 rotations. The weight of powder adhered to the removable punch tip (½″ round flat faced) was assessed using a microbalance periodically up to 100 compressions of ˜250 mgW tablets at a target solid fraction of 0.85.

[6] = physical properties of free base isolated from standard salt break process; type: physicochemical; conditions: free base isolated directly from a standard salt break process
From the text: As punch sticking is related to API surface area, API particle size control is critical for minimizing sticking during drug product manufacturing. […] Free base API with similarly poor physical properties was produced by free basing of the existing isethionate salt API or by neutralization of the in situ salt formed in the final step of the API synthesis. In either process, small API primary particles were produced due to the rapid crystallization caused by the dramatic change in solubility with adjustment of the pH.

[7] = free base prepared by traditional salt break procedure; cited from earlier work

Results of recrystallization ([1]; Chlorobenzene): small irregular shaped particles
Results of recrystallization ([1]; Cyclopentylmethyl ether): did not dissolve
Results of recrystallization ([1]; DMF): small needle shaped particles
Results of recrystallization ([1]; Mesitylene): small needle shaped particles
Results of recrystallization ([1]; NMP): small irregular shaped particles
Results of recrystallization ([1]; Propylene glycol): small irregular shaped particles
Results of recrystallization ([1]; Pyridine): small lathe shaped particles
Results of recrystallization ([1]; Sulfolane): small irregular shaped particles
Results of recrystallization ([1]; Toluene): did not dissolve
Results of recrystallization ([1]; Trifluorotoluene): did not dissolve
Results of recrystallization ([1]; m-Xylene): small/medium tomahawk shaped particles
Results of recrystallization ([1]; n-Butanol): did not dissolve
Results of recrystallization ([1]; n-Butyl Acetate): did not dissolve
Dissolution Temp. ([2]; 1:1:8 propylene glycol/n-BuOH/anisole (v/v)): 91.2 °C
Dissolution Temp. ([2]; 2:1:7 propylene glycol/n-BuOH/anisole (v/v)): 84.1 °C
Dissolution Temp. ([2]; 10% 1,4-butanediol/anisole (v/v)): 109.8 °C
Dissolution Temp. ([2]; 10% n-BuOH/Anisole (v/v)): >110° ° C.
Dissolution Temp. ([2]; 10% n-BuOH/NMP (v/v)): 103.7 °C
Dissolution Temp. ([2]; 20% n-BuOH/Anisole (v/v)): 109.7 °C
Dissolution Temp. ([2]; 25% 1,4-butanediol/anisole (v/v)): 104.8 °C
Dissolution Temp. ([2]; 25% n-BuOH/NMP (v/v)): >110° ° C.
Dissolution Temp. ([2]; 40% n-BuOH/Anisole (v/v)): 101.4 °C
Dissolution Temp. ([2]; Anisole): >110° ° C.
Dissolution Temp. ([2]; DMAc): >110° ° C.
Dissolution Temp. ([2]; DMF): >110° ° C.
Dissolution Temp. ([2]; DMSO): >110° ° C.
Dissolution Temp. ([2]; NMP): 97.9 °C
Dissolution Temp. ([2]; n-BuOH): >110° ° C.
Dissolution Temp. ([2]; n-Butyl acetate): >110° ° C.
chemical stability in solution (impurity peak by UPLC/MS) [3]: degradation occurred
Particle size D [4, 3] ([4]; 0.2 Bar ASPIROS dispersion): 21.33 μm
Particle size D [v, 0.1] ([4]; 0.2 Bar ASPIROS dispersion): 5.21 μm
Particle size D [v, 0.5] ([4]; 0.2 Bar ASPIROS dispersion): 17.00 μm
Particle size D [v, 0.9] ([4]; 0.2 Bar ASPIROS dispersion): 43.59 μm
D90 ([4]; Table 11): approximately 45 μm
MASS Punch profile (sticking propensity) [5]: positive response
size of hard agglomerates [6]: approximately 500 microns
SMILES: CC(=O)c1c(C)c2cnc(Nc3ccc(N4CCNCC4)cn3)nc2n(C2CCCC2)c1=O [compound 1, 6-acetyl-8-cyclopentyl-5-methyl-2-(5-piperazin-1-yl-pyridin-2-ylamino)-8H-pyrido[2,3-d]pyrimidin-7-one]
Results of recrystallization ([1]; Anisole): large particles (lathes or tomahawk shape)
bioavailability in animal studies [7]: low
